# Where two headings read alike, the source gives them in different places.
# Experiments:
# [1] = test system: MiaPaca-2 (expressing KRAS G12C mutant); test: Proliferation Assay (Cell Viability Assay); type: cell-based; conditions: Homo sapiens, MIA PaCa-2
# Procedure: Protocol for Proliferation Assay
# This assay is referred to as the “Proliferation Assay” or “Cell Viability Assay” throughout this application.
# Cell lines: Human tumor-derived cell lines were purchased from American Type Culture Collection. Human tumor-derived pancreatic cancer cell line MiaPaca-2 (expressing KRAS G12C mutant) and Panc-1 (expressing KRas G12D mutant), and Human non-small cell lung cancer (NSCLC) cell line A549 (expressing KRas G12S mutant) were grown in complete DMEM-High Glucose medium. Human colon cancer cell line SW-620 (expressing KRas G12V mutant) was grown in RPMI 1640 medium. All cell lines were supplemented with penicillin (100 U/mL), streptomycin (100 μg/mL), and 10% heat-inactivated FBS at 37° C. in a humidified incubator with 5% CO2.
# (§1) Method: Cells were plated at 2000 to 5000 cells/well density in 96-wells plate and cultured overnight. Small molecules to be tested were added to the cells in the final concentration of 10 μM in the presence of 0.3% DMSO and 10% FBS and incubated for 2-4 days at 37° C. in a humidified incubator with 5% CO2. For IC50 value determination, serial dilutions of compounds were added to cells under the same conditions.
# Assay: At the end of the incubation period, cell viability was determined using the CellTiter 96® Aqueous One Solution Cell Proliferation Assay according to manufacturer specifications (Promega, Madison, WI). The percentage of small molecules inhibition of cellular proliferation was calculated from raw data.
# Cell lines: these Human tumor-derived cell lines were purchased from American Type Culture Collection. Human tumor-derived pancreatic cancer cell line MiaPaca-2 (expressing KRAS G12C mutant) and Panc-1 (expressing KRas G12D mutant), and Human non-small cell lung cancer (NSCLC) cell line A549 (expressing KRas G12S mutant), and Human melanoma cell line A375 (wild type Kras) were grown in complete DMEM-High Glucose medium. Human tumor-derived pancreatic cancer cell lines SU86.86 (expressing KRas G12D mutant), BxPC3 (expressing wild type K-Ras), and Human non-small cell lung cancer (NSCLC) cell lines NCI-H441 (expressing KRas G12S mutant), NCI-H1975 (expressing wild type KRas), NCI-H358 (expressing KRas G12C mutant), NCI-H1299 (expressing NRas Q61H mutant), and Human colon cancer cell line SW-620 (expressing KRas G12V mutant), Human triple negative breast cancer cell line HCC-1806 (expressing wild type KRas), and Human tumor-derived multiple myeloma cell line MM.1R (expressing wild type KRAS), were grown in RPMI 1640 medium. Human tumor-derived breast cancer cell line BT-549 (expressing wild type KRAS) was grown in RPMI 1640 medium in the presence of 11.8U insulin. Human tumor-derived pancreatic cancer cell line HPAF-II (expressing KRas G12D mutant), Human triple negative breast cancer cell line BT-20 (expressing wild type KRas), and Human colon cancer cell line LS123 (expressing KRas G12S mutant), were grown in EMEM medium. Human tumor-derived pancreatic cancer cell line CF-PAC1 (expressing KRas G12V mutant) was frown in IMDM medium, and Human colon cancer cell line HT29 (expressing wild type KRas) was grown in McCoy's 5A medium. The colon cancer cell line GP2d (expressing KRas G12D mutant) was purchased from MilliporeSigma and grown in DMEM-High Glucose medium. All cell lines were supplemented with penicillin (100 U/mL), streptomycin (100 μg/mL), and 10% heat-inactivated FBS at 37° C. in a humidified incubator with 5% CO2.
# as §1, with “that were” for “to be”, “FBS,” for “FBS”
# [2] = test system: Smad2/Smad3 phosphorylation; test: Phospho-Smad2/3 Inhibition Assay (western blot), Panc-1; type: cell-based, human; conditions: at 10 μM, Panc-1 pancreatic cancer cell line; starred symbols = activation
# Procedure: Protocol for Phospho-Smad2/3 Inhibition Assay
# This assay is referred to as the “Phospho-Smad2/3 Inhibition Assay” throughout this application.
# Cell lines: Human tumor-derived pancreatic cancer cell line Panc-1 (expressing KRas G12D mutant) and mouse muscle myoblast C2C12 were purchased from American Type Culture Collection and grown in complete DMEM-High Glucose, supplemented with penicillin (100 U/mL), streptomycin (100 μg/mL), and 10% heat-inactivated FBS at 37° C. in a humidified incubator with 5% CO2.
# Method: Cells were plated at 350000 cells/well density in a 12-well plate, allowed 3 hours to adhere to the plate, then starved in the appropriate medium in the presence of 0.5% FBS overnight. The small molecules to be tested were added to the cells in the final concentration of 10 μM in the presence of 0.3% DMSO for 3 hours incubation at 37° C. For IC50 value determination, serial dilutions of compounds were added to cells under the same conditions. Next, Panc-1 cells were stimulated with 10 ng/ml TGF-b1 for 1 hour, and C2C12 cells were stimulated with 10 ng/ml TGF-b1 for 20 minutes (recombinant human TGF-b1, R&D Systems). After stimulation cells were lysed with lysis buffer containing 1% Triton X-100, EDTA, and Halt™ Protease & Phosphatase Inhibitor Cocktail (Thermo Scientific). Protein concentration was assessed by BCA protein assay (Thermo Scientific). Phosphorylation level of Smad2/Smad3 was determined by western blot.
# Western blot protocol: Equal amounts of protein (15-50 μg) were separated by SDS-PAGE and transferred to nitrocellulose membranes (Invitrogen by Thermo Fisher Scientific). The membrane was stained with Ponceau S Stain (Boston BioProducts) to verify uniform protein loading. Membranes were blocked with 10% milk and phosphorylation levels of Smad2/Smad3 were assessed by incubating overnight at 4° C. with the following antibodies: Phospho-Smad2 (Ser465/467) and Phosph-Smad3 (Ser423/425), both from Cell Signaling Technology. Then the membranes were incubated with HRP-conjugated secondary antibody (Jackson Immunoresearch, West Grove, PA). Bands were incubated in Amersham ECL Prime Western Blotting Detection Reagent (GE Healthcare) and visualized using the ChemiDoc MP imaging system (Bio-Rad).
# [3] = read-out: Proliferation in MiaPaca-2: IC50
SMILES,"IC50 [1, 3] [nM]",% inh of Smad2/3 phosphorylation in Panc-1 [2],"IC50 ([1]; Proliferation assay, MiaPaca-2, read-out: MiaPaca-2 IC50 (nM) Pancreatic) [nM]"
"COc1cccnc1Nc1nc(-c2nccn2C)nn2cc(-c3ccn(C)n3)c(C)c12 [Compound 112, N-(3-Methoxypyridin-2-yl)-5-methyl-2-(1-methyl-1H-imidazol-2-yl)-6-(1-methyl-1H-pyrazol-3-yl)pyrrolo[2,1-f][1,2,4]triazin-4-amine]",< 150,D* (D* = 76-100% activation),
"Cc1c(-c2ccn(C)n2)cn2nc(-c3nccn3C)nc(Nc3n[nH]c(C4CC4)n3)c12 [Compound 113, N-(5-Cyclopropyl-1H-1,2,4-triazol-3-yl)-5-methyl-2-(1-methyl-1H-imidazol-2-yl)-6-(1-methyl-1H-pyrazol-3-yl)pyrrolo[2,1-f][1,2,4]triazin-4-amine]",< 150,D* (D* = 76-100% activation),
"COc1ccnc(Nc2nc(-c3nccn3C)nn3cc(-c4ccn(C)n4)c(C)c23)n1.Cl [Compound 114, N-(4-Methoxypyrimidin-2-yl)-5-methyl-2-(1-methyl-1H-imidazol-2-yl)-6-(1-methyl-1H-pyrazol-3-yl)pyrrolo[2,1-f][1,2,4]triazin-4-amine hydrochloride salt]",< 150,D* (D* = 76-100% activation),
"Cc1c(-c2ccn(C)n2)cn2nc(-c3nccn3C)nc(Nc3ncccn3)c12.Cl [Compound 115, 5-Methyl-2-(1-methyl-1H-imidazol-2-yl)-6-(1-methyl-1H-pyrazol-3-yl)-N-(pyrimidin-2-yl)pyrrolo[2,1-f][1,2,4]triazin-4-amine hydrochloride salt]",< 150,A (A = 1-25% inhibition),
"Cc1c(-c2ccn(C)n2)cn2nc(-c3nccn3C)nc(Nc3ccncn3)c12.Cl [Compound 116, 5-Methyl-2-(1-methyl-1H-imidazol-2-yl)-6-(1-methyl-1H-pyrazol-3-yl)-N-(pyrimidin-4-yl)pyrrolo[2,1-f][1,2,4]triazin-4-amine hydrochloride salt]",< 150,D (D = 76-100% inhibition),
"COc1cnc(Nc2nc(-c3nccn3C)nn3cc(-c4ccn(C)n4)c(C)c23)nc1.Cl [Compound 117, N-(5-Methoxypyrimidin-2-yl)-5-methyl-2-(1-methyl-1H-imidazol-2-yl)-6-(1-methyl-1H-pyrazol-3-yl)pyrrolo[2,1-f][1,2,4]triazin-4-amine hydrochloride salt]",< 150,A (A = 1-25% inhibition),
"Cc1c(-c2ccn(C)n2)cn2nc(-c3nccn3C)nc(Nc3ccccn3)c12 [Compound 118, 5-Methyl-2-(1-methyl-1H-imidazol-2-yl)-6-(1-methyl-1H-pyrazol-3-yl)-N-(pyridin-2-yl)pyrrolo[2,1-f][1,2,4]triazin-4-amine]",< 150,A* (A* = 1-25% activation),
"Cc1c(-c2ccn(C)n2)cn2nc(-c3nccn3C)nc(Nc3nnco3)c12.Cl [Compound 119, N-(5-Methyl-2-(1-methyl-1H-imidazol-2-yl)-6-(1-methyl-1H-pyrazol-3-yl)pyrrolo[2,1-f][1,2,4]triazin-4-yl)-1,3,4-oxadiazol-2-amine hydrochloride salt]",510 to 1000,B* (B* = 26-45% activation),
"Cc1c(-c2ccn(C)n2)cn2nc(-c3nccn3C)nc(Nc3cnccn3)c12 [Compound 120, 5-Methyl-2-(1-methyl-1H-imidazol-2-yl)-6-(1-methyl-1H-pyrazol-3-yl)-N-(pyrazin-2-yl)pyrrolo[2,1-f][1,2,4]triazin-4-amine]",< 150,A* (A* = 1-25% activation),
"Cc1c(-c2ccn(C(C)C)n2)cn2nc(-c3nccn3C)nc(Nc3nccc(OCCO)n3)c12 [Compound 121, 2-((2-((6-(1-Isopropyl-1H-pyrazol-3-yl)-5-methyl-2-(1-methyl-1H-imidazol-2-yl)pyrrolo[2,1-f][1,2,4]triazin-4-yl)amino)pyrimidin-4-yl)oxy)ethan-1-ol]",510 to 1000,A (A = 1-25% inhibition),
"COCCOc1cc(Nc2nc(-c3nccn3C)nn3cc(-c4ccn(C(C)C)n4)c(C)c23)ncn1 [Compound 122, 6-(1-Isopropyl-1H-pyrazol-3-yl)-N-(6-(2-methoxyethoxy)pyrimidin-4-yl)-5-methyl-2-(1-methyl-1H-imidazol-2-yl)pyrrolo[2,1-f][1,2,4]triazin-4-amine]",< 150,C (C = 46-75% inhibition),
"Cc1c(-c2ccn(C(C)C)n2)cn2nc(-c3nccn3C)nc(Nc3cc(OCCN(C)C)ncn3)c12 [Compound 123, N-(6-(2-(Dimethylamino)ethoxy)pyrimidin-4-yl)-6-(1-isopropyl-1H-pyrazol-3-yl)-5-methyl-2-(1-methyl-1H-imidazol-2-yl)pyrrolo[2,1-f][1,2,4]triazin-4-amine]",< 150,B (B = 26-45% inhibition),
"Cc1c(-c2ccn(C)n2)cn2nc(-c3nccn3C)nc(Nc3cc4n(n3)CCO4)c12 [Compound 124, N-(5-Methyl-2-(1-methyl-1H-imidazol-2-yl)-6-(1-methyl-1H-pyrazol-3-yl)pyrrolo[2,1-f][1,2,4]triazin-4-yl)-2,3-dihydropyrazolo[5,1-b]oxazol-6-amine]",< 150,A (A = 1-25% inhibition),1 to 10
"Cc1c(-c2ccn(C(C)C)n2)cn2nc(-c3nccn3C)nc(Nc3ncc[nH]3)c12 [Compound 125, N-(1H-Imidazol-2-yl)-6-(1-isopropyl-1H-pyrazol-3-yl)-5-methyl-2-(1-methyl-1H-imidazol-2-yl)pyrrolo[2,1-f][1,2,4]triazin-4-amine]",150 to 500,B (B = 26-45% inhibition),

# Source: US12459951B2, “Compounds that interact with RAS superfamily proteins for treatment of cancers, inflammatory diseases, rasopathies, and fibrotic disease” (SHY Therapeutics, LLC, priority 2022, dated 2025)
